Assay results from patent US7964751B2, “Enantiomers of amino-phenyl-acetic acid octadec-9-(Z) enyl ester, their salts and their uses” (Yeda Research and Development Co. Ltd., priority 2007, dated 2011).
Structures can show the parent of a compound that is named as a salt.

Legend:
[1] = tested on: Delayed type hypersensitivity (DTH) skin inflammation in Balb/c mice; test: Delayed type hypersensitivity (DTH), oxazolone-induced mouse ear swelling test; format: in vivo; details: for % Inflamation (Diff/Base line * 100) / % Inhibition / Difference mm: 24 hours; for inhibition of inflammation: DTH model
Protocol: Delayed type hypersensitivity (DTH), a localized inflammatory reaction induced by cytokines secreted by certain TH cells when they encounter certain types of antigens, is an established experimental model for skin inflammation.
DTH reactions were induced in the abdomen skin of 8 week old female Balb/c mice, weighing 20 g each.
The mice were sensitized first by topical application of 100 μl of a 5% Oxazolone (4-Ethoxymethylene-2-phenyl-2-oxazolin-5-one; Sigma) solution in ethanol/acetone (3:1, vol/vol) to a shaved abdomen. The mice were anesthetized with I.P. injection of 0.2 ml/mouse of a stock solution prepared from Ketamine (1 ml)+Xylazine (1 ml)+Saline (8 ml). The anesthesia was done for the shaving of the abdomen and the first sensitization.
After 4 days the mice were challenged for the second time using 1% Oxazolone (4-Ethoxymethylene-2-phenyl-2-oxazolin-5-one; Sigma) solution in ethanol/acetone (3:1, vol/vol). The solution was pipetted onto the shaved abdomen of the mice.
Six days after the first sensitization, the right ear of each mouse was challenged with topical application of 20 μl (10 μl at each surface of the ear) of a 1% Oxazolone solution in olive oil/acetone (3:1, vol/vol).
Treatment was given 30 min after the elicitation by applying 40 μl (20 μl at each surface of the ear) of treatment compounds, as described before, on the challenged ear of each mouse.
After 24 hours, the extent of inflammation was measured using the mouse ear swelling test (caliper) and the percent inhibition induced by the treatment was quantified.
The experiment includes a positive control group which was administered Dexamethasone 2 mg/mouse, one untreated group as a negative control and one naïve group.
Baseline measurements of the ear were conducted before the first sensitization.

pKa of the compound = format: physicochemical
[2] = Racemization in various solvents, S-isomer measured by chiral HPLC; format: physicochemical
Protocol: A sample of (R)-Amino-phenyl-acetic acid octadec-9-(Z)-enyl ester HCl (Compound 2) was suspended in various solvents (2 mg/ml). The compound was 99.7% enantiomerically pure as determined by chiral HPLC. The presence of the S-isomer (compound 1) was measured after various time points. The amount of racemization in terms of percent (relative to compound 1+compound 2) is detailed in Table 2 below.
The presence of the S-isomer (Compound 1) was measured by chiral HPLC after various time points. The amount in terms of percent (relative to compound 1+compound 2) is detailed in the table below.

[3] = 5 mg/ml, 0.2 mg/mouse topical on challenged ear
[4] = 8 mg/ml, 0.32 mg/mouse topical on challenged ear
[5] = 12.5 mg/ml, 0.5 mg/mouse topical on challenged ear
[6] = 25 mg/ml, 1 mg/mouse topical on challenged ear
[7] = positive control, 50 mg/ml, 2 mg/mouse

## CCCCCCCC/C=C\CCCCCCCCOC(=O)C(N)c1ccccc1.Cl (racemic) [Racemic, aminophenylacetic acid octadec-(Z)-9-enyl ester HCl, reference compound]
[1]; [3]
  % Inflamation (Diff/Base line * 100): 69.43%
  % Inhibition: 38.46%
  Difference mm: 0.18 mm
[1]; [4]
  % Inflamation (Diff/Base line * 100): 73.53%
  % Inhibition: 39.98%
  Difference mm: 0.17 mm
[1]; [5]
  % Inflamation (Diff/Base line * 100): 43.08%
  % Inhibition: 60.14%
  Difference mm: 0.11 mm
[1]; [6]
  % Inflamation (Diff/Base line * 100): 13.68%
  % Inhibition: 87.76%
  Difference mm: 0.04 mm
[1]
  inhibition of inflammation: provide inhibition of inflammation

## CCCCCCCC/C=C\CCCCCCCCOC(=O)[C@@H](N)c1ccccc1 [Compound 1, (S)-Amino-phenyl-acetic acid octadec-9-(Z)-enyl ester HCl]
[1]; [3]
  % Inflamation (Diff/Base line * 100): 87.18%
  % Inhibition: 20.75%
  Difference mm: 0.23 mm
[1]; [4]
  % Inflamation (Diff/Base line * 100): 34.76%
  % Inhibition: 68.53%
  Difference mm: 0.09 mm
[1]; [5]
  % Inflamation (Diff/Base line * 100): 25.84%
  % Inhibition: 77.86%
  Difference mm: 0.06 mm
[1]; [6]
  % Inflamation (Diff/Base line * 100): 17.70%
  % Inhibition: 83.68%
  Difference mm: 0.05 mm
[1]
  inhibition of inflammation: provide inhibition of inflammation

## CCCCCCCC/C=C\CCCCCCCCOC(=O)[C@H](N)c1ccccc1 [Compound 2, (R)-Amino-phenyl-acetic acid octadec-9-(Z)-enyl ester HCl]
[1]; [3]
  % Inflamation (Diff/Base line * 100): 71.13%
  % Inhibition: 39.39%
  Difference mm: 0.17 mm
[1]; [4]
  % Inflamation (Diff/Base line * 100): 41.68%
  % Inhibition: 62.12%
  Difference mm: 0.11 mm
[1]; [5]
  % Inflamation (Diff/Base line * 100): 50.31%
  % Inhibition: 55.71%
  Difference mm: 0.13 mm
[1]; [6]
  % Inflamation (Diff/Base line * 100): 35.01%
  % Inhibition: 68.53%
  Difference mm: 0.09 mm
[1]
  inhibition of inflammation: provide inhibition of inflammation
pKa of the compound
  pKa: 4.2
[2]; 0.1 N HCl, 2 mg/ml, 0 hours
  Percent racemization (relative to compound 1 + compound 2): 0.4%
[2]; 0.1 N HCl, 2 mg/ml, 1 hour
  Percent racemization (relative to compound 1 + compound 2): 0.4%
[2]; 0.1 N HCl, 2 mg/ml, 2 hours
  Percent racemization (relative to compound 1 + compound 2): 0.4%
[2]; 0.1 N HCl, 2 mg/ml, 3 hours
  Percent racemization (relative to compound 1 + compound 2): 0.3%
[2]; 0.1 N HCl, 2 mg/ml, 4 hours
  Percent racemization (relative to compound 1 + compound 2): 0.3%
[2]; 0.1 N HCl, 2 mg/ml, 21 hours
  Percent racemization (relative to compound 1 + compound 2): 0.3%
[2]; 0.9% NaCl solution, 2 mg/ml, 0 hours
  Percent racemization (relative to compound 1 + compound 2): 0.9%
[2]; 0.9% NaCl solution, 2 mg/ml, 1 hour
  Percent racemization (relative to compound 1 + compound 2): 1.2%
[2]; 0.9% NaCl solution, 2 mg/ml, 2 hours
  Percent racemization (relative to compound 1 + compound 2): 2.3%
[2]; 0.9% NaCl solution, 2 mg/ml, 3 hours
  Percent racemization (relative to compound 1 + compound 2): 3.3%
[2]; 0.9% NaCl solution, 2 mg/ml, 4 hours
  Percent racemization (relative to compound 1 + compound 2): 3.0%
[2]; 0.9% NaCl solution, 2 mg/ml, 21 hours
  Percent racemization (relative to compound 1 + compound 2): 6.0%
[2]; 1% Acetic acid, pH 2.8, 2 mg/ml, 0 hr
  S-isomer (Compound 1) amount in percent (relative to compound 1+compound 2): 0.7%
[2]; 1% Acetic acid, pH 2.8, 2 mg/ml, 1 hr
  S-isomer (Compound 1) amount in percent (relative to compound 1+compound 2): 2.0%
[2]; 1% Acetic acid, pH 2.8, 2 mg/ml, 2 hr
  S-isomer (Compound 1) amount in percent (relative to compound 1+compound 2): 3.6%
[2]; 1% Acetic acid, pH 2.8, 2 mg/ml, 3 hr
  S-isomer (Compound 1) amount in percent (relative to compound 1+compound 2): 5.2%
[2]; 1% Acetic acid, pH 2.8, 2 mg/ml, 4 hr
  S-isomer (Compound 1) amount in percent (relative to compound 1+compound 2): 6.6%
[2]; Acetate Buffer, pH 3.5, 2 mg/ml, 0 hr
  S-isomer (Compound 1) amount in percent (relative to compound 1+compound 2): 0.3%
[2]; Acetate Buffer, pH 3.5, 2 mg/ml, 1 hr
  S-isomer (Compound 1) amount in percent (relative to compound 1+compound 2): 3.3%
[2]; Acetate Buffer, pH 3.5, 2 mg/ml, 2 hr
  S-isomer (Compound 1) amount in percent (relative to compound 1+compound 2): 6.2%
[2]; Acetate Buffer, pH 3.5, 2 mg/ml, 3 hr
  S-isomer (Compound 1) amount in percent (relative to compound 1+compound 2): 9.3%
[2]; Acetate Buffer, pH 3.5, 2 mg/ml, 4 hr
  S-isomer (Compound 1) amount in percent (relative to compound 1+compound 2): 12.1%
[2]; Acetate Buffer, pH 4.0, 2 mg/ml, 0 hr
  S-isomer (Compound 1) amount in percent (relative to compound 1+compound 2): 0.2%
[2]; Acetate Buffer, pH 4.0, 2 mg/ml, 1 hr
  S-isomer (Compound 1) amount in percent (relative to compound 1+compound 2): 7.7%
[2]; Acetate Buffer, pH 4.0, 2 mg/ml, 2 hr
  S-isomer (Compound 1) amount in percent (relative to compound 1+compound 2): 15.2%
[2]; Acetate Buffer, pH 4.0, 2 mg/ml, 3 hr
  S-isomer (Compound 1) amount in percent (relative to compound 1+compound 2): 22.1%
[2]; Acetate Buffer, pH 4.0, 2 mg/ml, 4 hr
  S-isomer (Compound 1) amount in percent (relative to compound 1+compound 2): 27.2%
[2]; Acetate Buffer, pH 5.0, 2 mg/ml, 0 hr
  S-isomer (Compound 1) amount in percent (relative to compound 1+compound 2): 0.2%
[2]; Acetate Buffer, pH 5.0, 2 mg/ml, 1 hr
  S-isomer (Compound 1) amount in percent (relative to compound 1+compound 2): 6.3%
[2]; Acetate Buffer, pH 5.0, 2 mg/ml, 2 hr
  S-isomer (Compound 1) amount in percent (relative to compound 1+compound 2): 14.6%
[2]; Acetate Buffer, pH 5.0, 2 mg/ml, 3 hr
  S-isomer (Compound 1) amount in percent (relative to compound 1+compound 2): 19.0%
[2]; Acetate Buffer, pH 5.0, 2 mg/ml, 4 hr
  S-isomer (Compound 1) amount in percent (relative to compound 1+compound 2): 25.3%
[2]; Acetate Buffer, pH 5.5, 2 mg/ml, 0 hr
  S-isomer (Compound 1) amount in percent (relative to compound 1+compound 2): 0.2%
[2]; Acetate Buffer, pH 5.5, 2 mg/ml, 1 hr
  S-isomer (Compound 1) amount in percent (relative to compound 1+compound 2): 4.7%
[2]; Acetate Buffer, pH 5.5, 2 mg/ml, 2 hr
  S-isomer (Compound 1) amount in percent (relative to compound 1+compound 2): 8.2%
[2]; Acetate Buffer, pH 5.5, 2 mg/ml, 3 hr
  S-isomer (Compound 1) amount in percent (relative to compound 1+compound 2): 12.4%
[2]; Acetate Buffer, pH 5.5, 2 mg/ml, 4 hr
  S-isomer (Compound 1) amount in percent (relative to compound 1+compound 2): 16.4%
[2]; PBS, pH 7.4, 2 mg/ml, 0 hours
  Percent racemization (relative to compound 1 + compound 2): 0.4%
[2]; PBS, pH 7.4, 2 mg/ml, 1 hour
  Percent racemization (relative to compound 1 + compound 2): 7.2%
[2]; PBS, pH 7.4, 2 mg/ml, 2 hours
  Percent racemization (relative to compound 1 + compound 2): 12.3%
[2]; PBS, pH 7.4, 2 mg/ml, 3 hours
  Percent racemization (relative to compound 1 + compound 2): 15.0%
[2]; PBS, pH 7.4, 2 mg/ml, 4 hours
  Percent racemization (relative to compound 1 + compound 2): 17.9%
[2]; PBS, pH 7.4, 2 mg/ml, 21 hours
  Percent racemization (relative to compound 1 + compound 2): 47.0%
[2]; Purified water, 2 mg/ml, 0 hours
  Percent racemization (relative to compound 1 + compound 2): 0.4%
[2]; Purified water, 2 mg/ml, 1 hour
  Percent racemization (relative to compound 1 + compound 2): 3.8%
[2]; Purified water, 2 mg/ml, 2 hours
  Percent racemization (relative to compound 1 + compound 2): 7.2%
[2]; Purified water, 2 mg/ml, 3 hours
  Percent racemization (relative to compound 1 + compound 2): 10.3%
[2]; Purified water, 2 mg/ml, 4 hours
  Percent racemization (relative to compound 1 + compound 2): 13.9%
[2]; Purified water, 2 mg/ml, 21 hours
  Percent racemization (relative to compound 1 + compound 2): 38.2%
[2]; various aqueous solvents
  racemization in various aqueous solvents: undergoes racemization

## C[C@@H]1C[C@H]2[C@@H]3CCC4=CC(=O)C=C[C@]4(C)[C@@]3(F)[C@@H](O)C[C@]2(C)[C@@]1(O)C(=O)CO [dexamethasone, Dexamethasone, reference compound]
[1]; [7]
  % Inflamation (Diff/Base line * 100): 22.62%
  % Inhibition: 80.42%
  Difference mm: 0.06 mm
